Structures are written as SMILES.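 Five compound concentrations were applied to cells in 96-well plates for 48 hours; endpoints were derived by simple linear interpolation of the resulting dose-response curve. The concentration for full growth arrest is given as TGI.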 A value given as a limit tells only on which side of the number the result lay.

Test systems include CCRF-CEM leukemia; HCC-2998 colon; HOP-62 NSCLC; MOLT-4 leukemia; OVCAR-3 ovarian; OVCAR-5 ovarian; RPMI-8226 leukemia; SF-295 CNS; SR leukemia.
Assay in all cases: inhibition of tumour cell growth, NCI panel, 48 h

For the compound `N#Cc1c(-c2ccc(Cl)c(Cl)c2)c(-c2ccc(Cl)c(Cl)c2)nn(CC(=O)O)c1=O`, the TGI is greater than 100 µM in the test on CCRF-CEM leukemia; greater than 100 µM with HCC-2998 colon; greater than 100 µM with HOP-62 NSCLC; greater than 100 µM in the test on MOLT-4 leukemia; 77.4 µM in the test on OVCAR-3 ovarian; greater than 100 µM in the test on OVCAR-5 ovarian. In addition, the TGI in the test with RPMI-8226 leukemia and in the test with SF-295 CNS was greater than 100 µM each time.

In the case of `COC(=O)CC(NC(=O)OCc1ccccc1)C(C(C)=O)C(=O)OCc1ccccc1` (stereo not given), the TGI with CCRF-CEM leukemia is greater than 31.6 µM; in the test on MOLT-4 leukemia it was greater than 31.6 µM; in the test with OVCAR-3 ovarian, greater than 31.6 µM; in the test with OVCAR-5 ovarian it was greater than 100 µM; with RPMI-8226 leukemia it was greater than 31.6 µM; in the test with SF-295 CNS, greater than 100 µM. This compound displayed a TGI in the test on SR leukemia greater than 100 µM.

Turning to `COc1ccc(NC(=O)C(=O)c2c(O)c3ccc(O)cc3oc2=O)c([N+](=O)[O-])c1`, the TGI in the test with CCRF-CEM leukemia, in the test with HCC-2998 colon, in the test with MOLT-4 leukemia, in the test with OVCAR-3 ovarian, in the test with OVCAR-5 ovarian and in the test with SF-295 CNS was greater than 100 µM throughout.

`C[C@@H](NC1CCCC[C@H]1O)c1ccccc1` (stereo not given in full): the TGI with CCRF-CEM leukemia, with HCC-2998 colon, with HOP-62 NSCLC, with MOLT-4 leukemia, with OVCAR-3 ovarian and in the test with RPMI-8226 leukemia was greater than 100 µM in each case. In the test with SF-295 CNS, this compound returned a TGI greater than 100 µM.

Turning to `CN1c2ccccc2N(C(=O)c2ccc([N+](=O)[O-])cc2)C(CC(=O)O)c2cccn21` (stereo not given), the TGI in the test with CCRF-CEM leukemia, with HCC-2998 colon, with HOP-62 NSCLC, with MOLT-4 leukemia, in the test with OVCAR-3 ovarian and in the test on OVCAR-5 ovarian was greater than 100 µM each time. The TGI in the test with RPMI-8226 leukemia and with SF-295 CNS was greater than 100 µM each time.

On to `Cn1c2c(c3ccccc31)CCN(CCCCN1CCCCC1)C2=O`, for which the TGI in the test with CCRF-CEM leukemia, with HOP-62 NSCLC, in the test on MOLT-4 leukemia, in the test with OVCAR-3 ovarian, in the test with OVCAR-5 ovarian and in the test on RPMI-8226 leukemia was greater than 100 µM in each case. In addition, the TGI in the test on SF-295 CNS was greater than 100 µM.

For `C/C(=C1/N=C(c2cc([N+](=O)[O-])ccc2Cl)N(c2cccc(C)c2)C1=O)c1cc2ccccc2oc1=O`, the TGI in the test with CCRF-CEM leukemia, in the test on HCC-2998 colon, in the test with HOP-62 NSCLC, in the test on MOLT-4 leukemia, in the test on OVCAR-3 ovarian and in the test on OVCAR-5 ovarian was greater than 100 µM throughout. The TGI was 72 µM in the test on RPMI-8226 leukemia, greater than 100 µM with SF-295 CNS and greater than 100 µM in the test with SR leukemia.

On to `CN(CCN1C(=O)c2cc([N+](=O)[O-])cc3cc([N+](=O)[O-])cc(c23)C1=O)CCN1C(=O)c2cc([N+](=O)[O-])cc3cc([N+](=O)[O-])cc(c23)C1=O`, for which the TGI in the test with CCRF-CEM leukemia was 4.03 µM; in the test with HCC-2998 colon, 23.8 µM; in the test on HOP-62 NSCLC, greater than 100 µM; in the test with OVCAR-3 ovarian, greater than 28 µM; in the test with OVCAR-5 ovarian, greater than 45.6 µM; in the test with RPMI-8226 leukemia, greater than 21.2 µM. In the test on SF-295 CNS, the TGI is greater than 100 µM.

As for `CC(C)(O)[C@@H]1CC[C@@]2(C)CCCC(O)C2(O)C1` (stereo not given in full), the TGI in the test with CCRF-CEM leukemia, in the test on HCC-2998 colon, with HOP-62 NSCLC, in the test on MOLT-4 leukemia, in the test with OVCAR-3 ovarian and in the test with OVCAR-5 ovarian was greater than 100 µM throughout. Further, the TGI in the test on RPMI-8226 leukemia, in the test with SF-295 CNS and with SR leukemia was greater than 100 µM in each case.

In the case of `Cc1nc(-n2nc(-c3ccccc3)cc2-c2ccccc2)sc1C(=O)/C=C/c1ccc(/C=C/C(=O)c2sc(-n3nc(-c4ccccc4)cc3-c3ccccc3)nc2C)cc1`, the TGI with CCRF-CEM leukemia was determined as 96.7 µM; in the test on HCC-2998 colon, 39.3 µM; with HOP-62 NSCLC it was 54.2 µM; with MOLT-4 leukemia, 68.6 µM; with OVCAR-3 ovarian, 59.3 µM; in the test on OVCAR-5 ovarian, 57.5 µM. Further, the TGI in the test with SF-295 CNS amounted to 51.8 µM; in the test on SR leukemia, 72.4 µM.

Take `O=C1NC(Cc2ccc(O)cc2)C(=O)N2CCCC12` (stereo not given): the TGI with CCRF-CEM leukemia, in the test on HCC-2998 colon, in the test on HOP-62 NSCLC, in the test on MOLT-4 leukemia, in the test with OVCAR-3 ovarian and in the test with OVCAR-5 ovarian was greater than 100 µM throughout. Moreover, the TGI in the test with RPMI-8226 leukemia, with SF-295 CNS and in the test on SR leukemia was greater than 100 µM throughout.

Consider `COC(=O)CCC(NC(=S)N/N=C(\C)c1cnc2ccccc2n1)C(=O)OC` (stereo not given), for which the TGI was 15.7 µM in the test with CCRF-CEM leukemia; greater than 100 µM in the test on HCC-2998 colon; greater than 100 µM in the test with HOP-62 NSCLC; 59.4 µM in the test on MOLT-4 leukemia; greater than 100 µM with OVCAR-3 ovarian; 63.4 µM with OVCAR-5 ovarian. For the same compound, the TGI in the test on RPMI-8226 leukemia is 36.8 µM; in the test on SF-295 CNS, greater than 100 µM; in the test with SR leukemia it was 42.8 µM.

With `CN(C)C=Nc1ccn(CCO)c(=O)n1`, the TGI in the test with CCRF-CEM leukemia, in the test on HCC-2998 colon, in the test with HOP-62 NSCLC, in the test on MOLT-4 leukemia, in the test with OVCAR-3 ovarian and with OVCAR-5 ovarian was greater than 100 µM throughout. Further, the TGI with SR leukemia was greater than 100 µM.

`COC(=O)C(C(=O)C(=O)Nc1c(C)cccc1C)c1cnc2ccccc2n1` (stereo not given): the TGI with CCRF-CEM leukemia, with HCC-2998 colon, with MOLT-4 leukemia, in the test with OVCAR-5 ovarian, in the test with RPMI-8226 leukemia and with SF-295 CNS was greater than 100 µM in each case. Further, the TGI in the test on SR leukemia was greater than 100 µM.

Regarding `N#CCCN(c1ccc(C=Nc2ccccc2)cc1)S(=O)(=O)c1ccccc1`, the TGI in the test on CCRF-CEM leukemia, in the test with HCC-2998 colon, in the test with HOP-62 NSCLC, in the test with MOLT-4 leukemia, with OVCAR-3 ovarian and with RPMI-8226 leukemia was greater than 100 µM throughout. For the same compound, the TGI with SF-295 CNS and in the test with SR leukemia was greater than 100 µM each time.

On to `O=C(N/C(=C\c1ccc(Cl)cc1)c1nc2ccccc2[nH]1)c1ccccc1`, for which the TGI turned out to be 57.3 µM with CCRF-CEM leukemia; 43.2 µM in the test with MOLT-4 leukemia; 49 µM in the test with OVCAR-3 ovarian; 85 µM in the test with OVCAR-5 ovarian; 42.6 µM in the test on RPMI-8226 leukemia.

Turning to `CN1C(=O)CCC1(O)C1C=CC=CC1` (stereo not given), the TGI in the test with CCRF-CEM leukemia, in the test on HCC-2998 colon, in the test on HOP-62 NSCLC, in the test on MOLT-4 leukemia, with OVCAR-3 ovarian and in the test on OVCAR-5 ovarian was greater than 100 µM throughout. The TGI in the test on RPMI-8226 leukemia, in the test with SF-295 CNS and in the test on SR leukemia was greater than 100 µM in each case.

(Values after PubChem BioAssay (NCI).)
